According to patent US8664257B2, “Oxygen-substituted 3-heteroaroylamino-propionic acid derivatives and their use as pharmaceuticals” (Sanofi, priority 2010, dated 2014):
Where two headings read alike, the source gives them in different places.

Molecular target: T1, Recombinant human cathepsin A (Homo sapiens, UniProt P10619)
T1 construct: Recombinant human cathepsin A (residues 29-480, with a C-terminal 10-His tag); 10-His (C); purchased R&D Systems 1049-SE
T1 sequence (P10619 29-312 limits assumed): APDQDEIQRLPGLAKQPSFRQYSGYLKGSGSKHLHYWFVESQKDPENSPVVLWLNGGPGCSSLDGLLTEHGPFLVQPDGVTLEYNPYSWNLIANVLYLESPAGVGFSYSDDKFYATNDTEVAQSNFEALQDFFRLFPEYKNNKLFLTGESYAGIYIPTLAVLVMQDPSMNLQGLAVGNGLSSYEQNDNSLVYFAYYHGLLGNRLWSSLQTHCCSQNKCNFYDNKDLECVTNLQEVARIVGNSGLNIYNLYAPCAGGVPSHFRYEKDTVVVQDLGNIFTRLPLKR
T1 sequence (P10619 327-480 limits assumed): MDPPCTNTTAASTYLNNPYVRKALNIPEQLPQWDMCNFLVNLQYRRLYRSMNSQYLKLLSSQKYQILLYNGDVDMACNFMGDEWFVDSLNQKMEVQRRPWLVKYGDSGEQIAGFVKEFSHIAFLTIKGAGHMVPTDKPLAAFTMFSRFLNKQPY
Experiment: Cathepsin A inhibitory activity
Format: biochemical
Summary of the method: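 Human cathepsin A (res. 29-480, C-His10) pre-activated with cathepsin L (MES pH 6.0, DTT, 15 min, 37 °C; quenched with 10 μM E-64). Enzyme (833 ng/ml) preincubated 15 min RT with compound in MES pH 5.5/DTT, then 2 μM Bodipy FL-bradykinin for 15 min RT. Capillary electrophoresis product/substrate peak areas; IC50 from % inhibition.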

[1] = read-out: Activity (2): Cathepsin A inhibitory activity (IC50 class)
[2] = read-out: Activity (2): Cathepsin A inhibitory activity, IC50 class
[3] = pharmacological test "Cathepsin A inhibitory activity", IC50 given as class A/B/C, read-out: Activity (2): Cathepsin A inhibitory activity, IC50 class
[4] = recombinant human cathepsin A, read-out: Activity (2): Cathepsin A inhibitory activity, IC50 class

SMILES | IC50 [2] [nM] | further results
O=C(O)C[C@H](NC(=O)c1cc(OCC2CC2)n(-c2ccccc2F)n1)c1ccccc1C(F)(F)F [Example 701] |  | IC50 [1]: 100 to 1000 nM
O=C(O)CC(NC(=O)c1cc(O)n(-c2ccccc2)n1)c1cccc(Cl)c1 (centres unmarked) [Example 10] | 100 to 1000 | 
O=C(O)CC(NC(=O)c1cc(O)n(-c2cccc(Cl)c2)n1)c1cccc(Cl)c1Cl (centres unmarked) [Example 257] |  | IC50 [3]: 100 to 1000 nM
Cc1ccccc1[C@H](CC(=O)O)NC(=O)c1cc(OCc2ccccc2C#N)n(-c2ccccc2F)n1 [Example 635, (S)-3-{[5-(2-Cyano-benzyloxy)-1-(2-fluoro-phenyl)-1H-pyrazole-3-carbonyl]-amino}-3-o-tolyl-propionic acid] |  | IC50 [1]: < 100 nM
COc1cccc([C@H](CC(=O)O)NC(=O)c2cc(O)n(-c3cccc(F)c3)n2)c1OC [Example 431] |  | IC50 [4]: 100 to 1000 nM
O=C(O)C[C@H](NC(=O)c1cc(O)n(-c2ccccc2)n1)c1cccc(Cl)c1Cl [Example 164] |  | IC50 [3]: < 100 nM
CCOc1cc(C(=O)N[C@@H](CC(=O)O)c2cccc(OC)c2)nn1-c1ccccc1F [Example 711] |  | IC50 [1]: 100 to 1000 nM
Cc1ccc(C)c(C(CC(=O)O)NC(=O)c2cc(O)n(-c3cccc(F)c3)n2)c1 (centres unmarked) [Example 321] | 100 to 1000 | 
O=C(O)C[C@H](NC(=O)c1cc(O)n(-c2ccc(F)cc2)n1)c1cccc(Cl)c1 [Example 350] | 100 to 1000 | 
O=C(O)CC(NC(=O)c1cc(O)n(-c2ccccc2)n1)c1ccc(C(F)(F)F)cc1 (centres unmarked) [Example 71] | 1000 to 30000 | 
COc1cc(C(=O)NC(CC(=O)O)c2ccc(-c3ccccn3)cc2)nn1-c1ccccc1 (centres unmarked) [Example 597, 3-[(5-Methoxy-1-phenyl-1H-pyrazole-3-carbonyl)-amino]-3-(4-pyridin-2-yl-phenyl)-propionic acid] |  | IC50 [1]: 100 to 1000 nM
CC(C)[C@](C)(O)COc1cc(C(=O)NCC(C(=O)O)c2ccccc2)nn1-c1ccccc1F (stereo partly drawn) [Example 830, 3-{[1-(2-Fluoro-phenyl)-5-((S)-2-hydroxy-2,3-dimethyl-butoxy)-1H-pyrazole-3-carbonyl]-amino}-2-phenyl-propionic acid] | 100 to 1000 | 
COc1ccc(Cl)cc1C(CC(=O)O)NC(=O)c1cc(O)n(-c2ccc(F)cc2)n1 (centres unmarked) [Example 344] | 100 to 1000 | 
Cc1cc(F)ccc1C(CC(=O)O)NC(=O)c1cc(O)n(-c2ccc(F)cc2F)n1 (centres unmarked) [Example 196] |  | IC50 [3]: < 100 nM
CC(C)(C)[C@H](O)COc1cc(C(=O)N[C@@H](CC(=O)O)c2cccc(Cl)c2Cl)nn1-c1ccccc1F [Example 800, (S)-3-(2,3-Dichloro-phenyl)-3-{[1-(2-fluoro-phenyl)-5-((S)-2-hydroxy-3,3-dimethyl-butoxy)-1H-pyrazole-3-carbonyl]-amino}-propionic acid] | < 100 | 
Cc1ccc(C)c(-n2nc(C(=O)NC(CC(=O)O)c3ccc(-c4ccccc4)cc3)cc2O)c1 (centres unmarked) [Example 55] | 100 to 1000 | 
O=C(O)CC(NC(=O)c1cc(O)n(-c2ccccc2F)n1)c1ccc(N2CCOCC2)cc1 (centres unmarked) [Example 518] |  | IC50 [4]: 1000 to 30000 nM

Further lines, with some results ahead:

IC50 [2] [nM] | SMILES | further results
100 to 1000 | COc1ccc(C(CC(=O)O)NC(=O)c2cc(O)n(-c3ccccc3F)n2)c(F)c1 (centres unmarked) [Example 133] | 
100 to 1000 | COc1ccc(C(CC(=O)O)NC(=O)c2cc(O)n(-c3ccc(F)cc3)n2)c(Cl)c1 (centres unmarked) [Example 345] | 
1000 to 30000 | COc1cccc(C(CC(=O)O)NC(=O)c2cc(O)n(-c3cc(C)ccc3C)n2)c1 (centres unmarked) [Example 28] | 
100 to 1000 | Cc1ccc(C(CC(=O)O)NC(=O)c2cc(O)n(-c3ccc(F)cc3)n2)c(C)c1 (centres unmarked) [Example 89] | 
100 to 1000 | COc1ccc([C@H](CC(=O)O)NC(=O)c2cc(O)n(-c3ccc(F)cc3F)n2)cc1 [Example 382] | 
1000 to 30000 | Cc1ccc(C)c(-n2nc(C(=O)NC(CC(=O)O)c3cccnc3)cc2O)c1 (centres unmarked) [Example 35] | 
1000 to 30000 | O=C(O)C[C@H](NC(=O)c1cc(O)n(-c2ccc(Cl)cc2)n1)c1cccc(F)c1 [Example 279] | 
100 to 1000 | Cc1ccccc1[C@H](CC(=O)O)NC(=O)c1cc(O)n(-c2cccc(Cl)c2)n1 [Example 75] | 
100 to 1000 | Cc1ccccc1C(CC(=O)O)NC(=O)c1cc(O)n(-c2ccccc2)n1 (centres unmarked) [Example 21] | 
